pIC50: −log10 of the molar value.
Assays:
Type in all cases: cell-based
[1] = test system: Z138 cells; assay: MTT cell proliferation assay, Z138 cells; conditions: Homo sapiens, Z-138, incubation approximately 64-72 hours
Protocol: (§1) The MTT cell proliferation assay was used to study the cytotoxic properties of the compounds. The assay was performed according to the method described by Roche Molecular Biochemicals, with minor modifications. The assay is based on the cleavage of the tetrazolium salt, MTT, in the presence of an electron-coupling reagent. The water-insoluble formazan salt produced must be solubilized in an additional step. Cells grown in a 96-well tissue culture plate were incubated with the MTT solution for approximately 4 hours. After this incubation period, a water-insoluble formazan dye formed. After solubilization, the formazan dye was quantitated using a scanning multi-well spectrophotometer (ELISA reader). […] The cells were seeded at 5,000-10,000 cells in each well of 96-well plate in 100 μL of fresh culture medium and were allowed to attach overnight. The stock solutions of the compounds were diluted in 100 μL cell culture medium to obtain eight concentrations of each test compound, ranging from 1 nM to 30 μM. […] All optical densities were measured at 490 nm using a Vmax Kinetic Microplate Reader (Molecular Devices). In most cases, the assay was performed in duplicate and the results were presented as a mean percent inhibition to the negative control±SE. The following formula was used to calculate the percent of inhibition. Inhibition (%)=(1−(ODo/OD))×100.
(§2) The compounds were tested against MS751, Z138 and 3T3 cells. The MS751 cell line is derived from a metastasis to lymph node of human cervix from a patient diagnosed with squameous cell carcinoma of the cervix. The […] cell line is a mature B-cell acute lymphoblastic leukemia cell line derived from a patient with chronic lymphocytic leukemia. 3T3 cells are standard fibroblast cells; they were originally isolated from Swiss mouse embryo tissue.

[2] = test system: MS751 cells; assay: MTT cell proliferation assay, MS751 cells; conditions: Homo sapiens, incubation approximately 64-72 hours
Protocol: as §1, §2

[3] = test system: 3T3 cells; assay: MTT cell proliferation assay, 3T3 cells; conditions: Mus musculus, NIH3T3; 3T3 fibroblast cells; incubation approximately 64-72 hours
Protocol: as §1, §2

[4] = test system: NHDF cells; assay: MTT cell proliferation assay, NHDF cells; conditions: normal human dermal fibroblast cells
Protocol: as §1, with “(%)=(1−(ODo/OD))×100. […]” for “(%)=(1−(ODo/OD))×100.”

[5] = test system: Hep G2 cells; assay: MTT cell proliferation assay, Hep G2 cells; conditions: HepG2; human hepatocellular carcinoma cells
Protocol: as §1, with “(%)=(1−(ODo/OD))×100. […]” for “(%)=(1−(ODo/OD))×100.”

[6] = test system: HEP 3B cells; assay: MTT cell proliferation assay, HEP 3B cells; conditions: Hep3B; human hepatocellular carcinoma cells
Protocol: as §1, with “(%)=(1−(ODo/OD))×100. […]” for “(%)=(1−(ODo/OD))×100.”

[7] = test system: UCH-2 cell line; assay: MTT cell proliferation assay, UCH-2 cells; conditions: UCH2; chordoma cell line
Protocol: as §1, with “(%)=(1−(ODo/OD))×100. […]” for “(%)=(1−(ODo/OD))×100.”

[8] = test system: SNU-182 cell line; assay: MTT cell proliferation assay, SNU-182 cells; conditions: human hepatoma cell line
Protocol: as §1, with “(%)=(1−(ODo/OD))×100. […]” for “(%)=(1−(ODo/OD))×100.”

[9] = test system: L3.6pl cell line; assay: MTT cell proliferation assay, L3.6pl cells; conditions: Homo sapiens, pancreatic cancer cell line
Protocol: as §1, with “(%)=(1−(ODo/OD))×100. […]” for “(%)=(1−(ODo/OD))×100.”

Nc1ccc(/C=C/C(=O)NCCOc2ccc(-c3ccc(C(=O)N4CC(F)(F)C4)cc3)cc2Cl)cn1 [Compound 318, (E)-3-(6-aminopyridin-3-yl)-N-(2-(3-chloro-4′-(3,3-difluoroazetidine-1-carbonyl)biphenyl-4-yloxy)ethyl)acrylamide] was tested, and the pIC50 [1] was over 7.00, the pIC50 [2] was over 7.00 and the pIC50 [3] was 5.30 to 7.00. It also gave a pIC50 [4] of over 7.00, a pIC50 [5] of over 7.00 and a pIC50 [6] of over 7.00. For the same compound, the pIC50 [7] was under 4.52, the pIC50 [8] was over 7.00 and the pIC50 [9] was over 7.00.

Compound Nc1ccc(/C=C/C(=O)NCCOc2ccc(-c3ccc(C(=O)N4CCC(F)(F)CC4)cn3)cc2C(F)(F)F)cn1 [Compound 355, (E)-3-(6-aminopyridin-3-yl)-N-(2-(4-(5-(4,4-difluoropiperidine-1-carbonyl)pyridin-2-yl)-2-(trifluoromethyl)phenoxy)ethyl)acrylamide] has a pIC50 [1] of over 7.00, a pIC50 [2] of over 7.00 and a pIC50 [3] of 5.30 to 7.00.

From patent US9994558B2, “Multicyclic compounds and methods of using same” (Karyopharm Therapeutics Inc., priority 2013, dated 2018)
